Activity calls are given as the source filed them.
Tests used:
Coxsackievirus B2 = experiment: Antiviral activity against coxsackie B2 virus; type: functional, organism-based
[1] = test system: Human immunodeficiency virus 1; experiment: Antiviral activity against HIV1; type: functional, organism-based
Vaccinia virus = experiment: Antiviral activity against vaccinia virus; type: functional, organism-based; settings: Orthopoxvirus vaccinia
Poliovirus 1 = experiment: Antiviral activity against Human poliovirus 1 Sabin; type: functional
[2] = test system: Respiratory syncytial virus; experiment: Antiviral activity against RSV A2 in VERO76 cells assessed as reduction of plaque number by MTT method; type: functional, organism-based; settings: human respiratory syncytial virus, A2, Vero 76
[3] = test system: Vesicular stomatitis virus; experiment: Antiviral activity against vesicular stomatitis virus; type: functional, organism-based
Reovirus sp. = experiment: Antiviral activity against Reovirus; type: functional, organism-based
Yellow fever virus = experiment: Antiviral activity against YFV in BHK cells assessed as protection from virus-induced cytopathogenicity by MTT method; type: functional, organism-based
[4] = test system: Bovine viral diarrhea virus 1; experiment: Antiviral activity against BVDV NADL in MDBK cells assessed as protection from virus-induced cytopathogenicity by MTT method; type: functional, organism-based; settings: Bovine viral diarrhea virus isolates and strains
[5] = Cytotoxicity against human MT4 cells after 96 hrs by MTT method; type: cell-based

SMILES	Activity (Coxsackievirus B2)	Activity [1]	Activity (Vaccinia virus)	Activity (Poliovirus 1)	EC50 [2] [µM]	Activity [3]	Activity (Reovirus sp.)	EC50 (Yellow fever virus) [µM]	EC50 [4] [µM]	CC50 at 96 h [5] [µM]
O=c1ccc2ccc(O)c(CN3CCCCC3)c2o1	inactive	inactive	inactive	inactive	> 100	inactive	inactive	> 100	> 100	> 100
COc1ccc2c(=O)c(Cc3c(OC(C)=O)ccc4c(C)cc(=O)oc34)c(N(C)C)oc2c1	–	inactive	inactive	inactive	25	inactive	inactive	> 100	> 28	42
CC(=O)Oc1ccc2c(C)cc(=O)oc2c1Cc1c(N(C)C)oc2ccc3ccccc3c2c1=O	–	inactive	inactive	inactive	> 13	inactive	inactive	> 100	> 100	> 100
Cc1cc(=O)oc2c(CN3CCN(C/C=C/c4ccccc4)CC3)c(O)ccc12	–	inactive	inactive	inactive	> 100	inactive	inactive	> 53	> 18	28
Cc1[nH]c2ccccc2c1Cc1c(OC(=O)CCCC(=O)O)ccc2c(C)cc(=O)oc12	–	inactive	inactive	inactive	> 100	inactive	inactive	> 64	> 69	29
COc1ccc2[nH]cc(Cc3c(OC(C)=O)ccc4c(C)cc(=O)oc34)c2c1	–	inactive	inactive	inactive	> 100	inactive	inactive	> 100	> 100	72
COCCN(CCOC)c1oc2ccc3ccccc3c2c(=O)c1Cc1c(OC(C)=O)ccc2c(C)cc(=O)oc12	–	inactive	inactive	inactive	≥ 100	inactive	inactive	> 100	> 100	> 100
Cc1cc(=O)oc2c(CN3CCOCC3)c(OC(=O)c3ccccc3)ccc12	–	inactive	inactive	inactive	> 100	inactive	inactive	> 100	> 100	> 100

— ChEMBL document CHEMBL1144007, “Activity of Mannich bases of 7-hydroxycoumarin against Flaviviridae” (Bioorg Med Chem, 2008)
